According to article PMC2770649 (Nucleic Acids Research, 2009):

Assays:
human DNA pol ι = biological target: T1, human DNA pol ι (Homo sapiens, UniProt Q9UNA4); test: Reporter-strand displacement assay, 1536-well format, pol ι; assay type: biochemical; conditions: IC50 against pol ι, approximate value
T1 sequence (Q9UNA4 1-740): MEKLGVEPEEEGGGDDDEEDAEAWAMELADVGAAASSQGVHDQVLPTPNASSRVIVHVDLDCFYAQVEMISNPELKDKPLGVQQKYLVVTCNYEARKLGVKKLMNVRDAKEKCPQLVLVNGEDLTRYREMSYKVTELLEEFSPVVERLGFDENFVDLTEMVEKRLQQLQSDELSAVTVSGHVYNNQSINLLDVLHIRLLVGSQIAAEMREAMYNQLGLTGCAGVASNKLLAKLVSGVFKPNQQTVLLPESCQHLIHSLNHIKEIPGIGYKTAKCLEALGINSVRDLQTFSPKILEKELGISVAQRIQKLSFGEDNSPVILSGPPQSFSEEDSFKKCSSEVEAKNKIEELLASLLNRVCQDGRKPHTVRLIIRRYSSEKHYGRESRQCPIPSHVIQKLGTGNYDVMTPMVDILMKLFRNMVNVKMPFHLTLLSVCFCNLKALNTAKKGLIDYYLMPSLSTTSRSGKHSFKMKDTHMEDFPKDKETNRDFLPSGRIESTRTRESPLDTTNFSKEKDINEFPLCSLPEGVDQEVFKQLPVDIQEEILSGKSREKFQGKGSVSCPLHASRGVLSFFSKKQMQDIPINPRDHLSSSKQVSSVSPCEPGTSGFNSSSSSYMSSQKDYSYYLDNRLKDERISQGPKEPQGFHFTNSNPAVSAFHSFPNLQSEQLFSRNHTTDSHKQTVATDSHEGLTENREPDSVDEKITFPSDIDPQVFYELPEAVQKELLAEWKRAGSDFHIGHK

human DNA pol β = human DNA pol β (Homo sapiens, UniProt P06746); test: Reporter-strand displacement assay, 1536-well format, pol β; assay type: biochemical; conditions: IC50 against pol β, approximate value

IC50 (human DNA pol ι) [nM] | IC50 (human DNA pol β) [nM] | Structure (SMILES)
~90 | ~20 | O=C(O)C1=CC(=C(c2ccc(O)c(C(=O)O)c2)c2ccc(O)c(C(=O)O)c2)C=CC1=O [Aurintricarboxylic acid]
~90 | ~20 | O=c1oc2c(O)c(O)cc3c(=O)oc4c(O)c(O)cc1c4c23 [Ellagic acid]
